Data on 16 molecules can be found in patent publication US6887896B1, “7-[(7-Alkoxy)-chrom-3-en-6-yl]-heptatrienoic acid and 7-[(3-alkoxy)-5,6-dihydronaphthalen-2-yl]-heptatrienoic acid derivatives having serum glucose reducing activity” (Allergan, Inc., priority 2003, dated 2005).

The target in one assay is T1, RXRβ (UniProt P28704).
T1 sequence (P28704 1-520): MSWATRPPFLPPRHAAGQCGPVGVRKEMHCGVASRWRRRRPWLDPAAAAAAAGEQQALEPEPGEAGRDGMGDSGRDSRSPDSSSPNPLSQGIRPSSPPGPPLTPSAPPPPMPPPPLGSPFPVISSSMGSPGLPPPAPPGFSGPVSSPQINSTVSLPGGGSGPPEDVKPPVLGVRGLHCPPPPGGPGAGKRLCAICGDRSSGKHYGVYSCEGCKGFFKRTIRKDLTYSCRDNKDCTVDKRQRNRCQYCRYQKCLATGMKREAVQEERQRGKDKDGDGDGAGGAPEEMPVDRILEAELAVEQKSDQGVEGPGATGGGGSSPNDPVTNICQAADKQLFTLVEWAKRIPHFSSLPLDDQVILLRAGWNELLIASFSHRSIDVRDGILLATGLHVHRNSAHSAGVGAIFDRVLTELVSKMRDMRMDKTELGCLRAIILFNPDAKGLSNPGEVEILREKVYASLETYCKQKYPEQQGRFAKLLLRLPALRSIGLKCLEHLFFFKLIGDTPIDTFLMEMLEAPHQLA
Briefly: holoreceptor transactivation assay, RXRβ. The format is cell-based. The note with it: for EC50: holoreceptor transactivation, read-out: RXR Trans. EC50 β; for RXR Trans. efficacy (number in parentheses) β: percentage compared to the standard compound. The text has this:
(§1) Specifically, one such assay is a chimeric receptor transactivation assay which tests for agonist-like activity in the R RAPE and RAR7 receptor subtypes, and which is based on work published by Feigner, P. L. and Holm, M (1989) Focus, 112 is described in detail in U.S. Pat. No. 5,455,265. The specification of U.S. Pat. No. 5,455,265 is hereby expressly incorporated by reference. A holoreceptor transactivation assay and a ligand binding assay which measure the antagonist/agonist like activity of the compounds of the invention, or their ability to bind to the several retinoid receptor subtypes, respectively, are described in published PCT Application No. WO WO93/11755 (particularly on pages 30-33 and 37-41) published on Jun. 24, 1993, the specification of which is also incorporated herein by reference. A detailed experimental procedure for holoreceptor transactivations has been described by Heyman et al. Cell 68, 397-406, (1992); Allegretto et al. J. Biol. Chem. 268, 26625-26633, and Mangelsdorf et al. The Retinoids: Biology, Chemistry and Medicine, pp 319-349, Raven Press Ltd., New York, which are expressly incorporated herein by reference. The results obtained in this assay are expressed in EC50 numbers, as they are also in the chimeric receptor transactivation assay. The results of the ligand binding assay are expressed in Ki numbers. (See Cheng et al. Biochemical Pharmacology Vol. 22 pp 3099-3108, expressly incorporated herein by reference.)
Efficacy in a transactivation assay is expressed as a percentage of the maximum potency attained by the compound compared to a standard which, in this case, is the compound named (2E,4E,1′S,2′S)-3-methyl-5-[2′-methyl-2′-(5,5,8,8-tetramethyl-5,6,7,8-tetrahydro-naphthalen-2-yl)-cyclopropyl]-penta-2,4-dienoic acid. This standard compound is described in U.S. Pat. No. 6,114,533.
The specification of this application for patent is organized in several sections in accordance with structural Formulas A through F each of which discloses a group of preferred compounds within the scope of the invention. Tables that disclose the activity of certain exemplary compounds of the invention in the above-described RXR receptor transactivation and binding assays are found in the corresponding sections. […] The transactivation data pertaining to the activation of RXR receptors were obtained in the holoreceptor assay.
(§2) Generally speaking, in the tables disclosing the results of transactivation and binding assays the numbers in parentheses indicate efficacy as a percentage compared to the standard compound, (2E,4E,1′S,2′S)-3-methyl-5-[2′-methyl-2′-(5,5,8,8-tetramethyl-5,6,7,8-tetrahydro-naphthalen-2-yl)cyclopropyl]-penta-2,4-dienoic acid and the other numbers indicate the measured EC50 and K; in nanomolar concentration.

Another assay deals with T2, RXRα (Homo sapiens, UniProt P19793).
T2 construct: expressed in transfected cells
T2 sequence (P19793 1-462): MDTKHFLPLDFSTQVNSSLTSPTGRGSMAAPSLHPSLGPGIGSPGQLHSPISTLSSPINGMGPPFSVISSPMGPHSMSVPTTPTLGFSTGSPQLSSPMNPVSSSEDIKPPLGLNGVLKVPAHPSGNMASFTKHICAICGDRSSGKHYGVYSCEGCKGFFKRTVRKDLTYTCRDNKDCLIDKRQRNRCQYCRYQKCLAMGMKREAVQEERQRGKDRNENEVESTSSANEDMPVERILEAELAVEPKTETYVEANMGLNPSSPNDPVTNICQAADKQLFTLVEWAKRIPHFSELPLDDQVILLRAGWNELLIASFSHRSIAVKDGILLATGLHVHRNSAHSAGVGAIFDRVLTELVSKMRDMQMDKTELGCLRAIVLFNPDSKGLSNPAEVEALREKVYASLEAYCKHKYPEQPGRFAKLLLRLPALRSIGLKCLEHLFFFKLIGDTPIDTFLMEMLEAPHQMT
The experiment in a line: ligand binding assay, RXRα. As to conditions: read-out: RXR Bind Ki α.
From the text: as §1, §2

A further assay concerns the target T3, RARγ (Homo sapiens, UniProt P13631).
T3 sequence (P13631 1-454): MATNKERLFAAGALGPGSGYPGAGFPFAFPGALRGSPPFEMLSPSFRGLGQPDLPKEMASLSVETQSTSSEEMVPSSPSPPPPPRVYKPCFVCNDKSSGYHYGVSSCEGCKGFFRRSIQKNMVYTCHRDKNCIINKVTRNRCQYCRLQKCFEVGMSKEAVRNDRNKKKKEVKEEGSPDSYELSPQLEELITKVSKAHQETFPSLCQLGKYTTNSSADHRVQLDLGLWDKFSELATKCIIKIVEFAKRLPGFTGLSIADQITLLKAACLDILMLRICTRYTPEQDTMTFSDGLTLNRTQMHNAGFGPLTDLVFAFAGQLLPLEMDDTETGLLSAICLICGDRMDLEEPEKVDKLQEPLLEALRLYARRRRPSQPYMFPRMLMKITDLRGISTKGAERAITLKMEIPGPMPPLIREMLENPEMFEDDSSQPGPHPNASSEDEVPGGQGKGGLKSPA
Briefly: ligand binding assay, RARγ. As to conditions: for Ki: read-out: RAR Bind. Ki γ.
From the text: as §1, §2

As to `CC/C(=C(F)/C=C/C(C)=C/C(=O)O)c1cc2c(cc1OC)OC(C)(C)C=C2C(C)C` [Compound 130, 6-Fluoro-7-(4-isopropyl-7-methoxy-2,2-dimethyl-2H-chromen-6-yl)-3-methyl-nona-2E,4E,6E-trienoic acid], at RXRβ, the EC50 was 3.1 nM and the “RXR Trans. efficacy (number in parentheses) β” value (shortened to “RXR Trans. efficacy”) is reported as 73%. The inhibitory constant (Ki) on RXRα came out at 3 nM. For the same molecule, the Ki at RARγ amounted to 2700 nM.

As to `COc1cc2c(cc1\C(C)=C(F)/C=C/C(C)=C/C(=O)O)C(C(C)C)=CC(C)(C)O2` [Compound 121, (2E,4E,6E)-6-Fluoro-7-(4-isopropyl-7-methoxy-2,2-dimethyl-2H-chromen-6-yl)-3-methyl-octa-2,4,6-trienoic acid], on RXRβ, the EC50 stood at 51 nM and the “RXR Trans. efficacy” value came to 72%. For the same molecule, the Ki at RXRα was found to be 7 nM. Also, at RARγ, the inhibition constant (Ki) worked out at 8800 nM.

Turning to `CCOc1c(\C(=C/C=C/C(C)=C/C(=O)O)CC)cc2c(c1Cl)OC(C)(C)C=C2C(C)C` [Compound 51], at RXRβ, the EC50 worked out at 88 nM and the “RXR Trans. efficacy” value is 26%. Also, at RXRα, the inhibition constant Ki was determined as 13 nM. Further, at RARγ, the inhibition constant Ki turned out to be 4900 nM.

With `CCCOc1cc2c(cc1\C(C)=C(F)/C=C/C(C)=C/C(=O)O)C(C(C)C)=CCC2(C)C` [Compound A-80], the figures for the inhibitory constant (Ki) at RXRα and on RARγ were 10 nM and 6400 nM, respectively.

Turning to `CCOc1cc2c(cc1\C(C)=C(F)/C=C/C(C)=C/C(=O)O)C=CCC2(C)C` [Compound A-76, (2E,4E,6E)-7-(3-Ethoxy-5,5-dimethyl-5,6-dihydro-naphthalen-2-yl)-6-fluoro-3-methyl-octa-2,4.6-trienoic acid], on RXRβ, the EC50 came to 368 nM and the “RXR Trans. efficacy” value came out at 128%. Also, the Ki on RXRα was determined as 35 nM. The Ki at RARγ came to 9200 nM.

As to `CC/C(=C(F)/C=C/C(C)=C/C(=O)O)c1cc2c(c(Cl)c1OC)OC(C)(C)C=C2C(C)C` [Compound 171, 7-(8-Chloro-4-isopropyl-7-methoxy-2,2-dimethyl-2H-chromen-6-yl)-6-fluoro-3-methyl-nona-2E,4E,6E-trienoic acid], on RXRβ, the EC50 was 0.2 nM and the “RXR Trans. efficacy” value is 85%. The inhibition constant (Ki) at RXRα is 1.3 nM. At RARγ, the inhibition constant (Ki) is 4900 nM.

Turning to `CCOc1cc2c(cc1\C(=C/C=C/C(C)=C/C(=O)O)CC)C(C)=CC(C)(C)O2` [Compound 46, 7-(7-Ethoxy-2,2,4-trimethyl-2H-chromen-6-yl)-3-methyl-nona-2E,4E,6Z-trienoic acid], the concentration for a half-maximal effect (EC50) at RXRβ is > 1000 nM. Further, the results for the Ki at RXRα and on RARγ were 199 nM and 3400 nM, respectively.

As to `CC/C(=C/C=C/C(C)=C/C(=O)O)c1cc2c(cc1OC)OC(C)(C)C=C2C(C)C` [Compound 44, 7-(4-Isopropyl-7-methoxy-22-dimethyl-2H-chromen-6-yl)-3-methyl-nona-2E,4E,6Z-trienoic acid], at RXRβ, the concentration giving a half-maximal response (EC50) worked out at 4.4 nM and the “RXR Trans. efficacy” value is 94%. On RXRα, the inhibitory constant (Ki) is 4 nM. In addition, the Ki on RARγ is 3500 nM.

Consider `CCOc1cc2c(cc1\C(CC)=C(F)/C=C/C(C)=C/C(=O)O)C(C(C)(C)C)=CCC2(C)C` [Compound A-83, (2E,4E,6E)-7-(8-tert-Butyl-3-ethoxy-5,5-dimethyl-5,6-dihydronaphthalen-2-yl)-6-fluoro-3-methyl-nona-2,4,6-trienoic acid], for which, on RXRβ, the EC50 stood at 7 nM and the “RXR Trans. efficacy” value was found to be 17%. The Ki on RXRα stood at 2 nM. The Ki on RARγ stood at 698 nM.

For the molecule `CCOc1cc2c(cc1\C(CC)=C(F)/C=C/C(C)=C/C(=O)O)C=CCC2(C)C` [Compound A-77], the EC50 at RXRβ was > 1000 nM. In addition, the inhibition constant (Ki) at RXRα was determined as 6 nM.

For `CCCOc1cc2c(cc1\C(C)=C(F)/C=C/C(C)=C/C(=O)O)C(C(C)(C)C)=CCC2(C)C` [Compound A-84, (2E,4E,6E)-6-Fluoro-3-(4,$dimethyl-6-n-propoxy-1-tert-butyl-3,4-dihydronaphthalen-7-yl)-3-methyl-2,4,6-octatrienoic acid], the Ki at RXRα came to 13 nM; at RARγ, 274 nM.

With `CCOc1cc2c(cc1\C(C)=C(F)/C=C/C(C)=C/C(=O)O)C(c1ccccc1)=CC(C)(C)O2` [Compound 127, (2E,4E,6E)-7-(7-Ethoxy-2,2-dimethyl-4-phenyl-2H-chromen-6-yl)-6-fluoro-3-methyl-octa-2,4,6-trienoic acid], the inhibition constant (Ki) stood at 97 nM at RXRα and 2600 nM at RARγ.

In the case of `CCOc1cc2c(cc1\C(C)=C(F)/C=C/C(C)=C/C(=O)O)C(CC)=CC(C)(C)O2` [Compound 123, 7-(7-Ethoxy-4-ethyl-2,2-dimethyl-2H-chromen-6-yl)-6-fluoro-3-methyl-octa-2E,4E,6E-trienoic acid], the Ki on RXRα was 833 nM; on RARγ, > 10000 nM.

Take `CCCOc1cc2c(cc1\C(C)=C(F)/C=C/C(C)=C/C(=O)O)C(c1ccccc1)=CC(C)(C)O2` [Compound 128, (2E,4E,6E)-7-(2,2-Dimethyl-4-phenyl-7-propoxy-2H-chromen-6-yl)-6-fluoro-3-methyl-octa-2,4,6-trienoic acid]: the Ki on RXRα was determined as 53 nM; on RARγ, 759 nM.

As to `CCOc1c(\C(CC)=C(F)/C=C/C(C)=C/C(=O)O)cc2c(c1Br)C(C)(C)CC=C2C(C)CC` (stereo not drawn) [Compound A-176, (2E,4E,6E)-7-(4-Bromo-8-sec-butyl-3-ethoxy-5,5-methyl-5,6-dihydro-naphthalen-2-yl)-6-fluoro-3-methyl-nona-2,4,6-trienoic acid], at RXRβ, the 50% effective concentration (EC50) was 4 nM and the “RXR Trans. efficacy” value amounted to 58%. In addition, on RARγ (Table 9 (Formula F), read-out: RAR γ Kd), the Kd is 517 nM.

Consider `CC(/C=C/C(F)=C(/C)c1cc2c(cc1OCC1CC1)C(C)(C)CC=C2C(C)C)=C\C(=O)O` [Compound A-81, (2E,4E,6E)-6-Fluoro-3-(4-dimethyl-6-(cyclopropyl)methoxy-1-isopropyl-3,4-dihydronaphthalen-7-yl)-3-methyl-2,4.6-octa-trienoic acid], for which the inhibition constant (Ki) on RXRα turned out to be 12 nM; on RARγ, 5600 nM.

Broadly, the EC50 is the concentration giving half of the maximal effect. A word on the Ki: it is the dissociation constant of the complex between target and ligand, obtained from inhibition or displacement. For orientation: Kd means the concentration at which binding is half-saturated.
